According to ChEMBL document CHEMBL1201862, “PubChem BioAssay data set” (2004):
Active and inactive are the calls of the source.

Assays:
[1] = target: Beta-galactosidase (Escherichia coli, UniProt Q8VNN2); assay: beta-galactosidase enzyme inhibitors and activators, dose response, artefact control for CCR6 antagonist project, biochemical, E. coli enzyme, set 3 (AID 504712); assay type: functional
[2] = cytotoxicity in HEK-293T cells, dose response, cytotoxicity control for TCR NF-kB inhibitor project, luminescence, T-cell screen hits (AID 489026); assay type: functional, cell-based;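 also: cells exposed to compound about 14 hours before the viability readout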
[3] = target: Heat shock protein HSP 90-alpha (Homo sapiens, UniProt P07900); assay type: functional, organism-based
[4] = tested on: INS1; assay: beta cell apoptosis inhibitors, cytokine rescue, dose response, luminescence, retest (AID 449756); assay type: functional, cell-based; conditions: Rattus norvegicus;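 also: cell death triggered by IL-1 beta plus TNF-alpha plus IFN-gamma mixture; protective hits raise ATP signal compared with cytokine alone wells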
[5] = target: Cytochrome P450 3A4 (Homo sapiens, UniProt P08684); conditions: Potency;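 also: confirmatory qHTS run detecting inhibitors and substrates of CYP3A4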
[6] = target: T1, Neuropeptides B/W receptor type 1 (Homo sapiens, UniProt P48145); assay: Fluorescence-based dose response cell-based high throughput screening assay to identify antagonists of the G-protein coupled receptor 7 (GPR7). [Related pubchem assays: 1952 (Screening assay (GPR7 antagonists).), 1880 (Summary AID.)]; assay type: functional
T1 sequence (P48145 whole entry): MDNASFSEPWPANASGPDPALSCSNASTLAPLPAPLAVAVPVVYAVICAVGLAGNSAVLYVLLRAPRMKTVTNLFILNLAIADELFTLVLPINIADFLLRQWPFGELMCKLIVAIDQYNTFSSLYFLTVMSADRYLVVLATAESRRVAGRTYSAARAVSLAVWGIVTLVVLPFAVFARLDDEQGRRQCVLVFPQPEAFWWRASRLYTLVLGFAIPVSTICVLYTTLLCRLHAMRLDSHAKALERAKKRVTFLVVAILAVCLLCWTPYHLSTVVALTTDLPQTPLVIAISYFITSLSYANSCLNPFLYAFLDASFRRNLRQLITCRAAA

[7] = target: Melanin-concentrating hormone receptor 1 (Homo sapiens, UniProt Q99705); assay: Fluorescence-based counterscreen for antagonists of the G-protein coupled receptor 7 (GPR7): cell-based high throughput dose response assay to identify antagonists of the melanin-concentrating hormone receptor 1 (MCHR1).; assay type: functional
[8] = target: T2, Microphthalmia-associated transcription factor (Homo sapiens, UniProt O75030); assay: TRPM1 promoter luciferase signal decrease, dose response, MITF inhibitor project, cell-based, SK-MEL-5, cherry-picked, set 3 (AID 493073); assay type: functional
T2 sequence (O75030 whole entry): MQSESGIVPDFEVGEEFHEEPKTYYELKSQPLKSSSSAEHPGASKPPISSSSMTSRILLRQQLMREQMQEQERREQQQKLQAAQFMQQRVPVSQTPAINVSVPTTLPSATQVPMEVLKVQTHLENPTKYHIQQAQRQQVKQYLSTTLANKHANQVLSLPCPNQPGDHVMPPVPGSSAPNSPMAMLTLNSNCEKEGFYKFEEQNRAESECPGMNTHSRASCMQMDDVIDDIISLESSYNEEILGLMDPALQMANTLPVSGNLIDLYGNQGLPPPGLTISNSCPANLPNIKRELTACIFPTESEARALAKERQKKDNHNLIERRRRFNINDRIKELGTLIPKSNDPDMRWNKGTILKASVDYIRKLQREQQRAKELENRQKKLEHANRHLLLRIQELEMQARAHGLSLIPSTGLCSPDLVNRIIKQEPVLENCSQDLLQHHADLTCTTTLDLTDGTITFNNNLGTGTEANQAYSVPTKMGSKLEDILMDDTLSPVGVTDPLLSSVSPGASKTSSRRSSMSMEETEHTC

[9] = tested on: H9c2; assay: cells; assay type: functional, cell-based; conditions: Rattus norvegicus, H9c2, Myocardium;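 also: confirmatory concentration-response retest of ultra-high-throughput screening hits for modulation of myocardial damage; cell death induced by hydrogen peroxide oxidative stress; compound pretreatment for 60 min then peroxide exposure for 2 h; potency is for protecting the cells against peroxide damage rather than for killing them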
[10] = AlphaScreen signal interference compounds, dose response, artefact control for ARNT-TACC3 interaction inhibitor project, biochemical, luminescence, cherry-pick (AID 651705); assay type: functional;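 also: AlphaScreen bead proximity signal that flags compounds interfering with the detection technology; potency reflects signal decrease which marks the compound as an assay artifact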
[11] = target: T3, Voltage-gated N-type calcium channel alpha-1B subunit/Amyloid beta A4 precursor protein-binding family A member 1 (Homo sapiens, UniProt Q00975+Q02410); assay type: protein assay
[12] = target: T3, Voltage-gated N-type calcium channel alpha-1B subunit/Amyloid beta A4 precursor protein-binding family A member 1; assay type: protein assay; remark: listed apart in the source
[13] = target: Troponin, cardiac muscle (Homo sapiens, UniProt P19429+P45379+P63316); assay: Fluorescence-based biochemical high throughput dose response assay for activators of the calcium sensitivity of cardiac Regulated Thin Filaments (RTF). [Related pubchem assays (depositor defined):AID493008, AID493018, AID504382, AID504383]; assay type: protein-complex assay
[14] = target: Cytochrome P450 2C9 (Homo sapiens, UniProt P11712)
[15] = target: DNA dC->dU-editing enzyme APOBEC-3G (Homo sapiens, UniProt Q9HC16); assay: Dose Response confirmation of small molecule APOBEC3G DNA Deaminase Inhibitors via a fluorescence-based single-stranded DNA deaminase assay. [Related pubchem assays (depositor defined):AID493012, AID493028]; assay type: functional
[16] = inhibitors of firefly luciferase expression or activity, dose response, H4 neuroglioma cells, luminescence (AID 1990); assay type: functional, cell-based
[17] = Luminescence Cell-Based Dose Response HTS to Identify Inhibitors of 5'UTR Stem-Loop Driven Prion Protein mRNA Translation in H4 Neuroglioblastoma Cells. [Related pubchem assays: 1827 (Project Summary), 1813 (Primary HTS)]; assay type: functional
[18] = inhibitors of SNCA 5'UTR-driven reporter translation, confirmation, H4 neuroglioma cells, luminescence (AID 1988); assay type: functional, cell-based
[19] = target: T4, Carboxy-terminal domain RNA polymerase II polypeptide A small phosphatase 1 (Homo sapiens, UniProt Q9GZU7); assay: inhibitors of CTDSP1, concentration-response testing, biochemical assay, absorbance-based, actives from ultra-high-throughput screening (AID 540297); assay type: functional
T4 sequence (Q9GZU7 whole entry): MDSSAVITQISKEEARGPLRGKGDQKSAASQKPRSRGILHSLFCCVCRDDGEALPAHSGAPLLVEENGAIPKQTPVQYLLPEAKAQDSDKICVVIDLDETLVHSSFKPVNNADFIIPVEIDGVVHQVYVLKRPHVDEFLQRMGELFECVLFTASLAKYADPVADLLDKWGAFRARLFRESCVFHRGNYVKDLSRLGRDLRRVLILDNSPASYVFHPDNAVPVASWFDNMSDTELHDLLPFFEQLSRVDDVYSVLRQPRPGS

[20] = target: Nonstructural protein 1 (Influenza A virus, UniProt Q194T2); assay type: functional, Influenza A virus (A/California/07/2009(H1N1))

Sequence of Beta-galactosidase (Q8VNN2 whole entry): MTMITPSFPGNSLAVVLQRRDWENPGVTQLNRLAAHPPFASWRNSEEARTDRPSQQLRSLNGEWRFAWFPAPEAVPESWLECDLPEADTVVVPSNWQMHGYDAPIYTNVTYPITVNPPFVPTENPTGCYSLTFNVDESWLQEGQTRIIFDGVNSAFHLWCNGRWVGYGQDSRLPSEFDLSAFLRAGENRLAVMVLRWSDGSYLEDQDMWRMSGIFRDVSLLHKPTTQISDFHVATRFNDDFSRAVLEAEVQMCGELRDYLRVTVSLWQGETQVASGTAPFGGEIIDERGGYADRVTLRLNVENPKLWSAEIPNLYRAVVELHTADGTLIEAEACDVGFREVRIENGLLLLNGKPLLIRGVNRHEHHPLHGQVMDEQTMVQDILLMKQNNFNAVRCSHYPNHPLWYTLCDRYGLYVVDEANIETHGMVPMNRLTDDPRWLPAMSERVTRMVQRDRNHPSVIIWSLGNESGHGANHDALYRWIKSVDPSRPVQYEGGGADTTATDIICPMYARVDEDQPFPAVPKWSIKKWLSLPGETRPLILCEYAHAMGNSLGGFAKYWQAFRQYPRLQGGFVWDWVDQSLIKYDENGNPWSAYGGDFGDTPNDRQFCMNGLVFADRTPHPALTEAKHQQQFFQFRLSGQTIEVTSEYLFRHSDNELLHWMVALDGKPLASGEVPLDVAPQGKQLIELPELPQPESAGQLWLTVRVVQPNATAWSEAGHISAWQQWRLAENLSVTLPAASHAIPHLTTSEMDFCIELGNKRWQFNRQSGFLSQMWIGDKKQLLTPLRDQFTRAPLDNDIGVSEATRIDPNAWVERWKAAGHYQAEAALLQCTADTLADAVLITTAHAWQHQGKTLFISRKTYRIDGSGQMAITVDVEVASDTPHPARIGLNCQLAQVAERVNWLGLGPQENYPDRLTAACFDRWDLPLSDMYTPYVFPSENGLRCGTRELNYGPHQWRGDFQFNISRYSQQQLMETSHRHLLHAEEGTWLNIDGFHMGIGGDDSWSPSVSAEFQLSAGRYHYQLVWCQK
T3 sequence (Q00975 whole entry): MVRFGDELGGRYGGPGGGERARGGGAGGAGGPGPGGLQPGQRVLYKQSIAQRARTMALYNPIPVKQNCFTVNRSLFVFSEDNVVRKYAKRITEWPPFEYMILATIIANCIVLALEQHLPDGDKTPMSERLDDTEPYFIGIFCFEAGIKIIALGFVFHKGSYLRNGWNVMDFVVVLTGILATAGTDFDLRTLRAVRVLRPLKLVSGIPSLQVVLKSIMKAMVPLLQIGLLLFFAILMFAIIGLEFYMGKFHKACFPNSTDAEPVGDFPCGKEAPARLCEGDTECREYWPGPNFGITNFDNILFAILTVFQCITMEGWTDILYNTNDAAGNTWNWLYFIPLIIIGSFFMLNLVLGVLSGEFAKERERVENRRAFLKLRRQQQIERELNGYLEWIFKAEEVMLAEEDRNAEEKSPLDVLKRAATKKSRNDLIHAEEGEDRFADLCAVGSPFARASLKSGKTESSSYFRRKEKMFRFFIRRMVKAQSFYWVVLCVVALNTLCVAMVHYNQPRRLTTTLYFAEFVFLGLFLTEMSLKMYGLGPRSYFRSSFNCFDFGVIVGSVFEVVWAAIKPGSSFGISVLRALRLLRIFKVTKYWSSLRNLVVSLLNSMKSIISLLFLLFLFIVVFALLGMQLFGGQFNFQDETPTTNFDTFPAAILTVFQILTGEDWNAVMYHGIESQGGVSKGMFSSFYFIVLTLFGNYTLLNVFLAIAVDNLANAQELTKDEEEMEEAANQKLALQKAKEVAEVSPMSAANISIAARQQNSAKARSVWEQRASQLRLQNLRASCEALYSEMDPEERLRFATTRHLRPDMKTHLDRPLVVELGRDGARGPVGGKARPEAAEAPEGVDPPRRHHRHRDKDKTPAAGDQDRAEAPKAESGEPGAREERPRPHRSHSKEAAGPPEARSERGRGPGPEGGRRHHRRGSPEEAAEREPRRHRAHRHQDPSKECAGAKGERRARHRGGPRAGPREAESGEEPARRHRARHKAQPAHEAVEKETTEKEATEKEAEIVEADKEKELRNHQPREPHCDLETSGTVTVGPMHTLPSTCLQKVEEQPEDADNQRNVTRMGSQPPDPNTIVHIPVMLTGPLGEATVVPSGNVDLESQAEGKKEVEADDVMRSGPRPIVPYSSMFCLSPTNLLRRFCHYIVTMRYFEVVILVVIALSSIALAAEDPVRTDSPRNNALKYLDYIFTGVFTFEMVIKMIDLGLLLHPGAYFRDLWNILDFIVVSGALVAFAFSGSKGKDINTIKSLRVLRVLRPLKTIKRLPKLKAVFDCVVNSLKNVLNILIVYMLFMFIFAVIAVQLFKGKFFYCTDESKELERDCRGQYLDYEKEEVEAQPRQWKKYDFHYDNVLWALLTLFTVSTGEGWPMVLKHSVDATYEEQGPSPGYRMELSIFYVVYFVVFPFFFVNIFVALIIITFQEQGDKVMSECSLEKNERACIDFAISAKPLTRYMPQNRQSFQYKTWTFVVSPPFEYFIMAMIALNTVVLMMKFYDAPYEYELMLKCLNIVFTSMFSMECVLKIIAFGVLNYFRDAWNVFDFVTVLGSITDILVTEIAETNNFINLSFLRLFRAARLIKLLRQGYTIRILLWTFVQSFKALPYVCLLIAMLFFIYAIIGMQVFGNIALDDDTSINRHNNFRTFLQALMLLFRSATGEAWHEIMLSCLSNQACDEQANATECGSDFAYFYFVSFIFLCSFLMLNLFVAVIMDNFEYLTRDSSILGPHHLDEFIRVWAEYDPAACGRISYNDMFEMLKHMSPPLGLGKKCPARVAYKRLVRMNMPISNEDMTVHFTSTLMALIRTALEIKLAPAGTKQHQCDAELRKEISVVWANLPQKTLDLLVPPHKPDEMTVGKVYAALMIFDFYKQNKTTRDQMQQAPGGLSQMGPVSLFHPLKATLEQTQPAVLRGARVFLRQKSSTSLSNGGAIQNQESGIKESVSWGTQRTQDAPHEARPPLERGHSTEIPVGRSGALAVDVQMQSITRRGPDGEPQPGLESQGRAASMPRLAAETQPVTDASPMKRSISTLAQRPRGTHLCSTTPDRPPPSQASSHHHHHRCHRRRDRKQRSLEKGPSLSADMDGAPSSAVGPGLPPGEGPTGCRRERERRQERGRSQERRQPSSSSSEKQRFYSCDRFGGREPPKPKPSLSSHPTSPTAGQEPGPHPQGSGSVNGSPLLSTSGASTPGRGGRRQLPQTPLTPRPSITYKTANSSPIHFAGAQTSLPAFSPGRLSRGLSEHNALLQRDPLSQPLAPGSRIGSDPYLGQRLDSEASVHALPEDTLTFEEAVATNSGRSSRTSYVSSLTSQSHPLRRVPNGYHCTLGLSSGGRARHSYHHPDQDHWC
T3 sequence (Q02410 whole entry): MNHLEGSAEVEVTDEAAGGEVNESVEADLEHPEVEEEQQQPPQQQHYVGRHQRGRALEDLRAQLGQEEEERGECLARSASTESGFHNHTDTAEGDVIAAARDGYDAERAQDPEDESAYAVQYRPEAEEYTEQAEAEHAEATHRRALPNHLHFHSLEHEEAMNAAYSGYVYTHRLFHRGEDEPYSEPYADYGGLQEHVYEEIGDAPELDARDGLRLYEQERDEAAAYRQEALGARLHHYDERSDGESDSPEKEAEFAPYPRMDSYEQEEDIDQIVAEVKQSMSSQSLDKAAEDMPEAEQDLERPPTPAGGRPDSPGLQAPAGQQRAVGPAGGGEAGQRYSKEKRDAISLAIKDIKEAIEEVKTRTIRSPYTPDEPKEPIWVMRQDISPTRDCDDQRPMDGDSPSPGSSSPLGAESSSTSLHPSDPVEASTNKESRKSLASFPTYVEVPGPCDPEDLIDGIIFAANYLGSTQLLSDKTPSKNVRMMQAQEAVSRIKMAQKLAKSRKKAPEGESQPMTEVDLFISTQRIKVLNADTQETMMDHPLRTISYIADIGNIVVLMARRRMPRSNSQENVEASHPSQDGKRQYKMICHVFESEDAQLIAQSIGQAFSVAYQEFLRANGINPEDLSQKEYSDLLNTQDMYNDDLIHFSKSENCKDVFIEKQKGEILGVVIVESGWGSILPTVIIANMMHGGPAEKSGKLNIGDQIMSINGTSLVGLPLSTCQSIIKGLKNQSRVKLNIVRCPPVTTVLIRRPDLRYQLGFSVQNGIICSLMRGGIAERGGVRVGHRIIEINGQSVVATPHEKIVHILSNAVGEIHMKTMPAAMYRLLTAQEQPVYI
Sequence of Melanin-concentrating hormone receptor 1 (Q99705 whole entry): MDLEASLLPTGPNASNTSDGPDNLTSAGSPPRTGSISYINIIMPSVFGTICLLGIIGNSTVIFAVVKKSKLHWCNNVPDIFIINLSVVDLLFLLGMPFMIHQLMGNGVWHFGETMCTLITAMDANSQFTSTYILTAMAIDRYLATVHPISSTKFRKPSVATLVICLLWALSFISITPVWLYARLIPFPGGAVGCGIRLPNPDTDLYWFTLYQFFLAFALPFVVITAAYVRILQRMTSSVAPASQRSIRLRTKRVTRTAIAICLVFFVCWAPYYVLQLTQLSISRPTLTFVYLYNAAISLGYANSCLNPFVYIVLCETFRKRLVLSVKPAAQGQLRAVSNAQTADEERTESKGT
Sequence of DNA dC->dU-editing enzyme APOBEC-3G (Q9HC16 whole entry): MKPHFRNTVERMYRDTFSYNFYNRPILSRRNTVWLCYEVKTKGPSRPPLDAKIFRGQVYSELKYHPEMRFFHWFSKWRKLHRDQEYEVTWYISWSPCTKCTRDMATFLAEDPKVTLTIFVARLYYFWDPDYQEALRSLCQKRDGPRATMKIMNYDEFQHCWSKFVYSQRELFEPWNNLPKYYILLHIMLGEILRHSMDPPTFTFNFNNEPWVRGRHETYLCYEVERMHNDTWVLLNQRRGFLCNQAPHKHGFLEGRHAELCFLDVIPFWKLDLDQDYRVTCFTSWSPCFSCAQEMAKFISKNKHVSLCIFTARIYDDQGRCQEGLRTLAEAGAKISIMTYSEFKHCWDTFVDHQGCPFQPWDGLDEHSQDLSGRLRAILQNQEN

With `Cc1ccc(O)c(N=Nc2nccs2)c1` the IC50 [1] was > 66.6 µM (inactive), the IC50 [2] was > 80 µM (inactive) and the AC50 [3] was 2.1 µM (active). The AC50 [4] was 1.15 µM (active).

For `COc1ccc(-c2oc3cc(O[C@@H]4OC(CO)C(O)C(O)C4O)c(OC)c(O)c3c(=O)c2OC)cc1O` (stereo partly specified), the AC50 [5] was 25.1 µM (inconclusive).

For `CCOC(=O)CSc1nnc(-c2ccc(S(=O)(=O)NCc3cccs3)cc2)o1`, the IC50 [6] was > 43.8 µM (not active) and the IC50 [7] was > 43.8 µM (not active).

For `CC(Oc1ccccc1)C(=O)Nc1nc(-c2ccccn2)cs1` (stereo unspecified), the IC50 [1] was > 66.6 µM (inactive), the AC50 [8] was 14 µM (active) and the IC50 [9] was > 79 µM (inactive). For the same compound, the AC50 [10] was 84.7 µM (active).

With `COc1ccccc1NS(=O)(=O)c1cc(NC(=O)c2ccncc2)ccc1N1CCCC1` the IC50 [11] was 29 µM (active) and the IC50 [12] was > 50 µM (inactive).

With `COc1ccc2nc(C)c3cc(C)oc3c2c1` the EC50 [13] was > 71.4 µM (inactive).

In the case of `Cc1cc(C)cc(N2C(=O)CC(Sc3nnnn3-c3ccccc3)C2=O)c1` (stereo unspecified), the IC50 [1] was > 66.6 µM (inactive) and the AC50 [14] was “inconclusive”.

For `N#CC1=C2SCN(c3ccc(F)cc3)CN2C(=O)CC1c1cccc(F)c1` (stereo unspecified), the IC50 [11] was 1.59 µM (active) and the IC50 [12] was > 50 µM (inactive).

For `O=[N+]([O-])c1ccc(N2CCN(Cc3ccccc3)CC2)nc1`, the IC50 [6] was 33.4 µM (not active) and the IC50 [7] was 22.8 µM (not active).

With `CC(Sc1ccc2nnc(-c3ccc(F)cc3)n2n1)C(=O)O` (stereo unspecified) the IC50 [15] was 21 µM (active).

For `O=C(c1ccc2c(c1)OCO2)N(CC1CCCO1)C1(C(=O)NC2CCCC2)CCCCC1` (stereo unspecified), the IC50 [6] was > 43.8 µM (not active) and the IC50 [7] was > 43.8 µM (not active).

In the case of `C=COc1ccc(N2C(=O)c3ccccc3OC2C)cc1` (stereo unspecified), the EC50 [13] was > 71.4 µM (inactive).

With `CCCN(CCC)CCOc1cc(C)ccc1C(C)C` the EC50 [16] was > 120 µM (not active), the IC50 [6] was 10.9 µM (not active) and the IC50 [7] was 6.6 µM (active). The EC50 [17] was > 120 µM (not active) and the EC50 [18] was > 120 µM (not active).

For `CC(=O)c1ccc(NC(=O)c2ccc(NC(=O)c3ccco3)cc2)cc1`, the IC50 [15] was 25.3 µM (active).

For `CC(/C=C/c1ccco1)=N\NC(=O)c1cccnc1`, the IC50 [11] was 9.19 µM (active), the IC50 [12] was 17.8 µM (active) and the IC50 [19] was 21.3 µM (active).

In the case of `C/C(=N\NC(=O)C1CCCN(S(=O)(=O)c2ccccc2)C1)c1ccccn1` (stereo unspecified), the IC50 [1] was > 66.6 µM (inactive), the IC50 [20] was 22.2 µM (active) and the AC50 [10] was 77.8 µM (active).
